Results published in patent US20220354929A1, “PEPTIDES AND USES THEREOF” (LATERAL IP PTY LTD, priority 2019, published 2022).
Values joined by “and” are separate entries in the source; they are usually repeats but may differ in a detail not shown here. Identical values can stand only once. “Also recorded” adds a separate entry of the source.

Columns and labels:
dorsal horn neurones = assay: whole-cell patch clamp recording in spinal cord slices from Chung models of neuropathic pain: membrane properties of dorsal horn neurones; type: cell-based, rat; settings: peptide 5 μM
From the text: (§1) An in vitro spinal cord slice with intact dorsal root afferents combined with single-cell whole-cell patch clamp electrophysiological recording techniques was used to assess the electrophysiological properties of the peptides having the amino acid sequence of SEQ ID NO:2, 3, 4 and 5.
The spinal nerve ligation model (Chung model) was first reported by Kim and Chung (1992; Pain, 50(3):355-63) and involves a single tight ligation of the L5 spinal nerve. […] This model has been used as a “gold standard” model for assessing the efficacy of novel compounds targeting neuropathic pain.
Adult male Sprague-Dawley rats, 8-9 weeks old, weighing 220-250 g at the time of surgery, were purchased from Charles River UK Ltd. The animals were housed in groups of 4 in an air-conditioned room on a 12-hour light/dark cycle. Food and water were available ad libitum. They were allowed to acclimatise to the experimental environment for three days by leaving them on a raised metal mesh for at least 40 min. The baseline paw withdrawal threshold (PWT) was examined using a series of graduated von Frey hairs for 3 consecutive days before surgery and re-assessed on the 6th to 8th day after surgery and on the 12th to 14th day after surgery before drug dosing. Each rat was anaesthetized with 5% isoflurane mixed with oxygen (2L per min) followed by an intramuscular (i.m.) injection of ketamine 90 mg/kg plus xylazine 10 mg/kg. The back was shaved and sterilized with povidone-iodine. The animal was placed in a prone position and a para-medial incision was made on the skin covering the L4-6 level. The L5 spinal nerve was carefully isolated and tightly ligated with 6/0 silk suture. The wound was then closed in layers after a complete hemostasis. A single dose of antibiotics (Amoxipen, 15 mg/rat, i.p.) was routinely given for prevention of infection after surgery. The animals were placed in a temperature-controlled recovery chamber until fully awake before being returned to their home cages.
(§2) Chung model rats, aged 8 to 12 weeks, were housed in an air-conditioned room on a 12 hour light/dark cycle with food and water available ad libitum. The rats were terminally anaesthetized using isofluorane and decapitated. The vertebral column, rib cage and surrounding tissues were rapidly removed and pinned under ice-cold (<4° C.), high sucrose-containing artificial cerebrospinal fluid (aCSF) comprising: 127 mM sucrose, 1.9 mM KCl, 1.2 mM KH2PO4, 0.24 mM CaCl2, 3.9 mM MgCl2, 26 mM NaHCO3, 10 mM D-glucose and 0.5 mM ascorbic acid. A laminectomy was performed and the spinal cord and associated roots gently dissected and teased out of the spinal column and surrounding tissues. Dura and pia mater and ventral roots were subsequently removed with fine forceps and the spinal cord hemisected. Care was taken to ensure dorsal root inputs to the spinal cord were maintained. The hemisected spinal cord-dorsal root preparations were secured to a tissue slicer and spinal cord slices (400 to 450 μm thick) with dorsal roots attached were cut in chilled (<4° C.) high sucrose aCSF using a Leica VT1000s microtome.
(§3) Slices were transferred to a small beaker containing ice cold aCSF with 127 mM NaCl, 1.9 mM KCl, 1.2 mM KH2PO4, 1.3 mM MgCl2, 2.4 mM CaCl2, 26 mM NaHCO3 and 10 mM D-glucose, and rapidly warmed to 35° C. ±1° C. in a temperature-controlled water bath over a 20 minute period, then subsequently removed and maintained at room temperature (22° C. ±2° C.) prior to electrophysiological recording. Electrophysiological recording was performed in aCSF comprising 127 mM NaCl, 1.9 mM KCl, 1.2 mM KH2PO4, 1.3 mM MgCl2, 2.4 mM CaCl2, 26 mM NaHCO3 and 10 mM D-glucose.
Whole-cell recordings were performed at 34-35° C. from Lamina I or II neurones in the dorsal horn of the spinal cord slices using Axopatch 1D and/or Multiclamp 700B amplifies and using the “blind” version of the patch-clamp technique. […]

[1] = tested on: dorsal root afferent-mediated synaptic inputs to dorsal horn neurones; assay: whole-cell recording in spinal cord slices from Chung models: dorsal root afferent-mediated synaptic inputs (evoked EPSPs/IPSPs); type: cell-based, rat; settings: peptide 5 μM; dorsal root stimulation 0.1 Hz
Method: as §1, §2, §3
Whole-cell recordings were performed at 34-35° C. from Lamina I or II neurones in the dorsal horn of the spinal cord slices using Axopatch 1D and/or Multiclamp 700B amplifies and using the “blind” version of the patch-clamp technique.
Patch pipettes were pulled from thin-walled borosilicate glass with resistances of between 3 and 8 MS2 when filled with intracellular solution (140 mM potassium gluconate, 10 mM KCl, 1 mM EGTA-Na, 10 mM HEPES, 4 mM Na2ATP, 0.3 mM Na-GTP). The peptides of SEQ ID NOs:2, 3, 4 or 5 (LAT7771, LAT7772, LAT7773 or LAT7774) were diluted in the tissue bath at a concentration of 5 μM.
A concentric bipolar stimulating electrode was placed appropriately either on the dorsal root or dorsal root entry zone to evoke postsynaptic potentials/currents in recorded cells (see FIG. 1). […] EPSPs/EPSCs were confirmed as monosynaptic on the basis of being characterised by a constant latency and rise-time with few failures.
Recordings were monitored on an oscilloscope and stored on digital audio tapes for later off-line analysis. In addition, data were low-pass filtered at 2-5 kHz, (1 kHz for voltage-clamp data), digitized at 2-10 kHz and stored on a PC running pCLAMP 10 data acquisition software (Axon Instruments). Analysis of electrophysiological data was carried out using Clampfit 10 software.

[2] = solubility in distilled water

Sequence: CRIVYDSNCG [LAT7774]
- effect on inward rectification (in words) (dorsal horn neurones): changes in inward rectification
- effect on membrane potential / postsynaptic membrane properties (in words) (dorsal horn neurones): little effect on a further 2 dorsal horn neurones; also recorded: hyperpolarisation; also recorded: depolarisation
- Input Resistance, mean in presence of peptide (dorsal horn neurones; all cells): 294.0±62.2 MΩ and 294.0 MΩ
- Membrane Potential, mean in presence of peptide (dorsal horn neurones; all cells, ipsilateral to injury): −59.8±3.6 mV and −59.8 mV
- Normalised Input Resistance, mean in presence of peptide (dorsal horn neurones; control = 100): 121.2
- Normalised Input Resistance, ΔIR (dorsal horn neurones; control = 100): −21.2
- reversal potential of peptide-induced response (intersection of VI relations) (dorsal horn neurones; individual neurones): around −100 mV and ~−65 mV and around −80 mV and ~−85 mV and around −95 mV and around −55 mV and around −85 mV
- Normalised Membrane Potential, mean in presence of peptide (dorsal horn neurones; rest = 100): 100.9
- Normalised Membrane Potential, ΔVm (dorsal horn neurones; rest = 100): −0.9
- effect on dorsal root-evoked EPSPs / excitatory synaptic transmission (in words) [1]: no effect on dorsal root evoked (0.1 Hz) EPSPs in 4 neurones; also recorded: minor reduction in two; also recorded: increased EPSPs in one; also recorded: both facilitating and inhibiting these inputs; also recorded: small decrease in EPSPs; also recorded: lack of effect; also recorded: increase in EPSPs
- solubility in distilled water [2]: soluble
